What was measured:
[1] = biological target: Rhodesain (Trypanosoma brucei rhodesiense) (UniProt Q95PM0); assay: Inhibition of Trypanosoma brucei rhodesiense rhodesain expressed in Pichia pastoris X33 at 100 uM using Cbz-Phe-Arg-AMC as substrate measured over 10 mins by fluorescence microplate reader analysis
[2] = system: Trypanosoma brucei brucei; assay: Antitrypanosomal activity against trypomastigote form of Trypanosoma brucei brucei TC 221 after 24 hrs by alamar blue assay; assay type: functional, organism-based; conditions: TC 221, 24 h
[3] = Cytotoxicity against mouse J774.1 cells incubated for 24 hrs by alamar blue assay; assay type: cell-based; conditions: read-out: TC50

Chain of Rhodesain (Trypanosoma brucei rhodesiense) (Q95PM0 1-450): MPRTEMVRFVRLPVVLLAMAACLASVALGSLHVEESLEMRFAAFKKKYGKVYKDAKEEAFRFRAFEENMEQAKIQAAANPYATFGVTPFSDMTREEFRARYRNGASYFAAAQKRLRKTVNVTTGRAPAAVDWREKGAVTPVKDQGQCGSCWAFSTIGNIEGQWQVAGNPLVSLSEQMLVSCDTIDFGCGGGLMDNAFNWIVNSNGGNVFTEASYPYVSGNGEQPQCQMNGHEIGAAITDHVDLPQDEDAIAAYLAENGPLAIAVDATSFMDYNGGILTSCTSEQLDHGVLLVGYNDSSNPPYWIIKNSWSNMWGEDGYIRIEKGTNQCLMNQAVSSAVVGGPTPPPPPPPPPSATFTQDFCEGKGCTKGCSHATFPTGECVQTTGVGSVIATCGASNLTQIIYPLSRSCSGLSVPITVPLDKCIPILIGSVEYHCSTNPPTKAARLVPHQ

Q: For COC(=O)/C=C\CCN1C(=O)CN=C(c2ccccc2)c2ccccc21, which inhibition [1] is on record?
A: 27%

Q: What about the IC50 [2] of the same compound?
A: > 40 µM

Q: For CC(=O)/C=C/CCCN1C(=O)CN=C(c2ccccc2)c2ccccc21, which CC50 at 24 h [3] is on record?
A: 31.8 µM

Q: What about the inhibition [1] of the same compound?
A: 27%

Q: What about the IC50 [2] of the same compound?
A: 4.6 µM

Q: For N#C/C=C\CCN1C(=O)CN=C(c2ccccc2)c2ccccc21, which inhibition [1] is on record?
A: 27%

Q: And the IC50 [2]?
A: > 40 µM

Q: What does the source list for N#C/C=C\CCCCN1C(=O)CN=C(c2ccccc2)c2ccccc21?
A: inhibition [1]: 27%; IC50 [2]: 14.5 µM

Q: What does the source list for COC(=O)/C=C/CCCN1C(=O)CN=C(c2ccccc2)c2ccccc21?
A: inhibition [1]: 27%; IC50 [2]: 23.5 µM

Q: Which IC50 [2] does the source give for COC(=O)/C=C/CNC(=O)CN1C(=O)[C@@H](COC(=O)NC23CC4CC(CC(C4)C2)C3)N=C(c2ccccc2)c2ccccc21 here?
A: 4.8 µM

Q: Which CC50 at 24 h [3] does the source give for CC(=O)/C=C/CCN1C(=O)CN=C(c2ccccc2)c2ccccc21 here?
A: > 100 µM

Q: And the inhibition [1]?
A: 27%

Q: What about the IC50 [2] of the same compound?
A: 5.3 µM

Q: What does the source list for N#C/C=C\CCCN1C(=O)CN=C(c2ccccc2)c2ccccc21?
A: inhibition [1]: 27%; IC50 [2]: > 40 µM

Q: Which results are given for CC(=O)/C=C/CCCCN1C(=O)CN=C(c2ccccc2)c2ccccc21?
A: inhibition [1]: 27%; IC50 [2]: 13.1 µM

Q: Which inhibition [1] does the source give for COC(=O)/C=C/CCCCN1C(=O)CN=C(c2ccccc2)c2ccccc21 here?
A: 27%

Q: What about the IC50 [2] of the same compound?
A: 15.9 µM

Source: ChEMBL document CHEMBL3822379, “Development of novel 1,4-benzodiazepine-based Michael acceptors as antitrypanosomal agents” (Bioorg Med Chem Lett, 2016)
